Reference: patent publication US20060151899A1, “Process for producing drug ultramicroparticle and apparatus therefor” (priority 2004, published 2006)

Experiment: Solubility under substantially physiological conditions
Type: physicochemical
Conditions: pH 5 to 7

NS(=O)(=O)c1ccc(S(=O)(=O)Nc2cccc3c(Cl)c[nH]c23)cc1 [N-(3-chloro-7-indolyl)-1,4-benzenedisulfonamide]
Solubility: insoluble or slightly soluble
